Reference: PubChem BioAssay (NCI)
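Grown in 96-well plates, cells were treated for 48 hours with each compound at five concentrations. Insufficient inhibition: endpoint recorded as highest concentration tested. The concentration for 50% growth inhibition is given as GI50. TGI: total growth inhibition.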

Legend:
Assay in all cases: DTP human tumour cell line panel, 48 h
A549 NSCLC = test system: A549 NSCLC
MALME-3M melanoma = test system: MALME-3M melanoma
U251 CNS = test system: U251 CNS
MDA-MB-435 = test system: MDA-MB-435
SW-620 colon = test system: SW-620 colon
EKVX NSCLC = test system: EKVX NSCLC
SK-MEL-2 melanoma = test system: SK-MEL-2 melanoma
SN12C renal = test system: SN12C renal
MDA-MB-231 breast = test system: MDA-MB-231 breast
MDA-MB-468 breast = test system: MDA-MB-468 breast
SF-295 CNS = test system: SF-295 CNS
RPMI-8226 leukemia = test system: RPMI-8226 leukemia
K-562 leukemia = test system: K-562 leukemia
OVCAR-8 ovarian = test system: OVCAR-8 ovarian
CCRF-CEM leukemia = test system: CCRF-CEM leukemia
LOX IMVI melanoma = test system: LOX IMVI melanoma
UACC-257 melanoma = test system: UACC-257 melanoma
TK-10 renal = test system: TK-10 renal
NCI/ADR-RES ovarian = test system: NCI/ADR-RES ovarian
OVCAR-4 ovarian = test system: OVCAR-4 ovarian
SR leukemia = test system: SR leukemia
SF-539 CNS = test system: SF-539 CNS
MCF7 breast = test system: MCF7 breast
T-47D breast = test system: T-47D breast
OVCAR-3 ovarian = test system: OVCAR-3 ovarian
NCI-H23 lung = test system: NCI-H23 lung
RXF 393 renal = test system: RXF 393 renal
CAKI-1 renal = test system: CAKI-1 renal
MOLT-4 leukemia = test system: MOLT-4 leukemia
M14 melanoma = test system: M14 melanoma
SF-268 CNS = test system: SF-268 CNS
BT-549 breast = test system: BT-549 breast
KM12 colon = test system: KM12 colon
SK-MEL-28 melanoma = test system: SK-MEL-28 melanoma
HOP-62 NSCLC = test system: HOP-62 NSCLC
NCI-H522 lung = test system: NCI-H522 lung
SK-OV-3 ovarian = test system: SK-OV-3 ovarian
OVCAR-5 ovarian = test system: OVCAR-5 ovarian
HOP-92 NSCLC = test system: HOP-92 NSCLC
COLO 205 colon = test system: COLO 205 colon
SK-MEL-5 melanoma = test system: SK-MEL-5 melanoma
786-0 renal = test system: 786-0 renal
HT29 colon = test system: HT29 colon
IGROV1 ovarian = test system: IGROV1 ovarian
A498 renal = test system: A498 renal
HL-60(TB) leukemia = test system: HL-60(TB) leukemia
PC-3 prostate = test system: PC-3 prostate
ACHN renal = test system: ACHN renal
SNB-75 CNS = test system: SNB-75 CNS
HCC-2998 colon = test system: HCC-2998 colon
UO-31 renal = test system: UO-31 renal
SNB-19 CNS = test system: SNB-19 CNS
UACC-62 melanoma = test system: UACC-62 melanoma
NCI-H226 lung = test system: NCI-H226 lung
DU-145 prostate = test system: DU-145 prostate
HCT-15 colon = test system: HCT-15 colon
HCT-116 colon = test system: HCT-116 colon
NCI-H460 lung = test system: NCI-H460 lung
HS 578T breast = test system: HS 578T breast

Work on `O=C(c1ccc(Cl)cc1)C1[C@H](c2ccccc2Cl)[C@@H](c2ccccc2)NC12C(=O)Nc1ccc(Cl)cc12` (stereo partly drawn) yielded a GI50 (A549 NSCLC) of 18.5 µM, a TGI (A549 NSCLC) of 46.1 µM and a GI50 (MALME-3M melanoma) of 15.4 µM. The TGI (MALME-3M melanoma) was 29 µM, the GI50 (U251 CNS) was 16.8 µM and the TGI (U251 CNS) was 33 µM. For the same compound, the GI50 (MDA-MB-435) was 16 µM, the TGI (MDA-MB-435) was 30.3 µM and the GI50 (SW-620 colon) was 15.9 µM. The TGI (SW-620 colon) was 31.8 µM, the GI50 (EKVX NSCLC) was 18 µM and the TGI (EKVX NSCLC) was 47.6 µM. It also gave a GI50 (SK-MEL-2 melanoma) of 16.2 µM, a TGI (SK-MEL-2 melanoma) of 32.7 µM and a GI50 (SN12C renal) of 15.3 µM. It also gave a TGI (SN12C renal) of 28.7 µM, a GI50 (MDA-MB-231 breast) of 15.6 µM and a TGI (MDA-MB-231 breast) of 29.5 µM. For the same compound, the GI50 (MDA-MB-468 breast) was 11.8 µM, the TGI (MDA-MB-468 breast) was 25.8 µM and the GI50 (SF-295 CNS) was 16.9 µM. It also gave a TGI (SF-295 CNS) of 34.8 µM, a GI50 (RPMI-8226 leukemia) of 25.6 µM and a TGI (RPMI-8226 leukemia) of 79.7 µM. For the same compound, the GI50 (K-562 leukemia) was 26.6 µM, the TGI (K-562 leukemia) was > 100 µM and the GI50 (OVCAR-8 ovarian) was 17.9 µM. The TGI (OVCAR-8 ovarian) was 39.5 µM, the GI50 (CCRF-CEM leukemia) was 26.7 µM and the TGI (CCRF-CEM leukemia) was 72.9 µM. The GI50 (LOX IMVI melanoma) was 14.9 µM, the TGI (LOX IMVI melanoma) was 28.1 µM and the GI50 (UACC-257 melanoma) was 20.4 µM. It also gave a TGI (UACC-257 melanoma) of 44.1 µM, a GI50 (TK-10 renal) of 19.6 µM and a TGI (TK-10 renal) of 53.2 µM. The GI50 (NCI/ADR-RES ovarian) was 16.3 µM, the TGI (NCI/ADR-RES ovarian) was 33.2 µM and the GI50 (OVCAR-4 ovarian) was 20.8 µM. For the same compound, the TGI (OVCAR-4 ovarian) was 58.4 µM, the GI50 (SR leukemia) was 18.5 µM and the TGI (SR leukemia) was 47.7 µM. It also gave a GI50 (SF-539 CNS) of 16.9 µM, a TGI (SF-539 CNS) of 32.6 µM and a GI50 (MCF7 breast) of 17.6 µM. It also gave a TGI (MCF7 breast) of 42.6 µM, a GI50 (T-47D breast) of 16.1 µM and a TGI (T-47D breast) of 39.6 µM. For the same compound, the GI50 (OVCAR-3 ovarian) was 16.8 µM, the TGI (OVCAR-3 ovarian) was 35.3 µM and the GI50 (NCI-H23 lung) was 16.2 µM. It also gave a TGI (NCI-H23 lung) of 33.2 µM, a GI50 (RXF 393 renal) of 13.9 µM and a TGI (RXF 393 renal) of 29.3 µM. For the same compound, the GI50 (CAKI-1 renal) was 15.2 µM, the TGI (CAKI-1 renal) was 43.5 µM and the GI50 (MOLT-4 leukemia) was 23.6 µM. The TGI (MOLT-4 leukemia) was 78.7 µM, the GI50 (M14 melanoma) was 15.3 µM and the TGI (M14 melanoma) was 28.7 µM. It also gave a GI50 (SF-268 CNS) of 19.5 µM, a TGI (SF-268 CNS) of 48.2 µM and a GI50 (BT-549 breast) of 16.2 µM. The TGI (BT-549 breast) was 33.3 µM, the GI50 (KM12 colon) was 18.2 µM and the TGI (KM12 colon) was 38.1 µM. For the same compound, the GI50 (SK-MEL-28 melanoma) was 17.1 µM, the TGI (SK-MEL-28 melanoma) was 31.6 µM and the GI50 (HOP-62 NSCLC) was 14.8 µM. The TGI (HOP-62 NSCLC) was 29.3 µM, the GI50 (NCI-H522 lung) was 13.7 µM and the TGI (NCI-H522 lung) was 30.3 µM. For the same compound, the GI50 (SK-OV-3 ovarian) was 21 µM, the TGI (SK-OV-3 ovarian) was 61.2 µM and the GI50 (OVCAR-5 ovarian) was 15.9 µM. For the same compound, the TGI (OVCAR-5 ovarian) was 31.6 µM, the GI50 (HOP-92 NSCLC) was 16 µM and the TGI (HOP-92 NSCLC) was 33.8 µM. The GI50 (COLO 205 colon) was 16.5 µM, the TGI (COLO 205 colon) was 30.1 µM and the GI50 (SK-MEL-5 melanoma) was 16.6 µM. For the same compound, the TGI (SK-MEL-5 melanoma) was 30.6 µM, the GI50 (786-0 renal) was 19.1 µM and the TGI (786-0 renal) was 39.7 µM. For the same compound, the GI50 (HT29 colon) was 15.6 µM, the TGI (HT29 colon) was 32.5 µM and the GI50 (IGROV1 ovarian) was 16.7 µM. For the same compound, the TGI (IGROV1 ovarian) was 38.5 µM, the GI50 (A498 renal) was 19.9 µM and the TGI (A498 renal) was 46.6 µM. For the same compound, the GI50 (HL-60(TB) leukemia) was 19.9 µM, the TGI (HL-60(TB) leukemia) was 52.5 µM and the GI50 (PC-3 prostate) was 15.1 µM. It also gave a TGI (PC-3 prostate) of 36.1 µM, a GI50 (ACHN renal) of 25.5 µM and a TGI (ACHN renal) of 79.5 µM. For the same compound, the GI50 (SNB-75 CNS) was 11.1 µM, the TGI (SNB-75 CNS) was 36.9 µM and the GI50 (HCC-2998 colon) was 16.3 µM. It also gave a TGI (HCC-2998 colon) of 32.7 µM, a GI50 (UO-31 renal) of 12.9 µM and a TGI (UO-31 renal) of 37.7 µM. The GI50 (SNB-19 CNS) was 23.1 µM, the TGI (SNB-19 CNS) was 78.9 µM and the GI50 (UACC-62 melanoma) was 13.4 µM. It also gave a TGI (UACC-62 melanoma) of 26.7 µM, a GI50 (NCI-H226 lung) of 14.9 µM and a TGI (NCI-H226 lung) of 30.3 µM. It also gave a GI50 (DU-145 prostate) of 20.1 µM, a TGI (DU-145 prostate) of 42.7 µM and a GI50 (HCT-15 colon) of 16.1 µM. It also gave a TGI (HCT-15 colon) of 31.3 µM, a GI50 (HCT-116 colon) of 14.6 µM and a TGI (HCT-116 colon) of 28.2 µM. The GI50 (NCI-H460 lung) was 19 µM, the TGI (NCI-H460 lung) was 36.3 µM and the GI50 (HS 578T breast) was 16.5 µM. For the same compound, the TGI (HS 578T breast) was 40.2 µM.
